The values that follow come from article PMC7203682, “Pharmacological Inhibition of MALT1 Protease Leads to a Progressive IPEX-Like Pathology” (Frontiers in Immunology, 2020).

Data set [1] has as its target MALT1 (Canis lupus familiaris, UniProt A0A8I3RR14). The experiment in a line: cell-based.
Protocol: Human whole blood was obtained from healthy volunteers by venipuncture at the Novartis Basle Health care unit. Blood was pooled into two 50 ml Falcon tubes and filtered using a 100 μm (or 70 μm)-cell strainer. Serial dilutions of compounds (10 mM DMSO stock) were diluted again 1/10 in X-VIVO medium (Lonza Biosciences) and 500 μl of whole blood was mixed with 55 μl of X-VIVO/compound mixes and pre-incubated for 1 h at 37°C with shaking (∼600 rpm). After the pre-incubation time 200 μl of the blood/compound mixes in duplicates were transferred to a new flat bottom plates and PMA (final: 100 ng/ml)/anti-CD28 (final: 300 ng/ml) solution was added. Incubation was performed overnight at 37°C + 5% CO2. Blood plates were spun for 10 min at 470 g and 100 μl of the resulting serum was analyzed for IL-2 levels using MesoScale Discovery kits (MSD), according to the manufacturer’s protocol. […] Similar protocols were implemented for PBMC and blood from rat and dog species.
Data set [2] relates to female Lewis rat. As to conditions: in vivo, 10 mg/kg. The protocol:
Freund’s incomplete adjuvant (IFA, Difco, Detroit, United States) was mixed with porcine collagen type II (Chondrex, Redmond, United States) using a polytron on ice. The final solution consisted of 200 μg of collagen in 200 μl of IFA. […] of this was injected intradermally (i.d.) into the base of the tail of an isofluorane narcotized female Lewis rat. After 7 days, the isofluorane narcotized animal was boosted i.d. with a fresh batch of the immunization solution in an adjacent site at the base of the tail (100 μg in 100 μl). Paw swelling and body weight were taken three times per week as described below.
There were 10 animals per group for the compound treated groups and n = 9 rats for the vehicle group. […] Hind paws were taken for histological analysis.
There were five animals per group.
All animal studies were performed according to current Swiss animal protection laws, issued by the Cantonal Veterinary Office Basel-Stadt, Switzerland. Body weight of the animals was assessed regularly throughout the study. Mean values of groups were calculated. Scoring of the paw swelling was done on an arbitrary scale of 0–12 per rat, evaluating each hind paw in the front with 0–3 and in the ankle with 0–3, thus obtaining a maximal score of 6 per paw. The paw scores were summed up to obtain a score for each individual animal. The individual sum scores of all the animals were averaged and SEMs were calculated. The scoring system used was: 0 = no detectable sign of inflammation; 1, light swollen region; 2, more obviously swollen region; 3, ankylosis or severely swollen region.
Serum obtained at the end of the study, was diluted 1:10000 and 1: 100000.
Three-μm thick sections were stained with Giemsa and Safranin O (prophylactic setting) or hematoxylin and eosin (therapeutic setting).
Histopathological changes were blindly scored on a scale of 0 (normal) to 3 (severe changes). Following parameters were assessed: inflammatory cell infiltrates, joint damage and proteoglycan loss ([44]).

Data set [3] can be described thus: blood compound concentrations in mice. The class given is in vivo, C57BL/6 mice. As to conditions: mouse; for concentration at 1 h: C57BL/6, blood, ip, read-out: [Mepazine] blood at 1h (peak); for [Mepazine] blood at 15h (trough): BQL: below quantification limit.
Data set [4] deals with Foxp3+ Treg cells. The experiment in a line: Treg frequency and functional markers in mice treated 12 days. The class given is in vivo, C57BL/6 mice. As to conditions: 8 mg/kg BID i.p. or 16 mg/kg QD i.p. The protocol:
Eight-week-old C57BL/6 mice (Charles River France) were treated from day 0 to day 12, either via p.o. […] (mepazine) dosing. Mepazine acetate (Chembridge, San Diego, CA, United States) was solubilized and dosed in PEG200/water (30/70 v/v). […] Some animals were euthanized at the end of the treatment period for analysis of lymphoid organs, while other animals were kept until day 19 to analyze the recovery of Treg cells after cessation of the treatment. […] Blood samples were collected along the treatment and recovery period to monitor changes in Tregs levels over time. Treg frequencies in blood and spleen as well as the expression of CTLA-4, TNFR2, KLRG1, and CD25 on Tregs was assessed by flow cytometry (see below). All animal studies were performed in accordance with the animal experimentation laws and guidelines laid down by the Swiss Federal and Cantonal Authorities. […] Splenocytes were analyzed at scheduled necropsies. […] CTLA-4 expression was assessed intra- and extracellularly.

Read-outs that look alike come from different tables or passages of the source.

Sequence of MALT1 (A0A8I3RR14 1-857): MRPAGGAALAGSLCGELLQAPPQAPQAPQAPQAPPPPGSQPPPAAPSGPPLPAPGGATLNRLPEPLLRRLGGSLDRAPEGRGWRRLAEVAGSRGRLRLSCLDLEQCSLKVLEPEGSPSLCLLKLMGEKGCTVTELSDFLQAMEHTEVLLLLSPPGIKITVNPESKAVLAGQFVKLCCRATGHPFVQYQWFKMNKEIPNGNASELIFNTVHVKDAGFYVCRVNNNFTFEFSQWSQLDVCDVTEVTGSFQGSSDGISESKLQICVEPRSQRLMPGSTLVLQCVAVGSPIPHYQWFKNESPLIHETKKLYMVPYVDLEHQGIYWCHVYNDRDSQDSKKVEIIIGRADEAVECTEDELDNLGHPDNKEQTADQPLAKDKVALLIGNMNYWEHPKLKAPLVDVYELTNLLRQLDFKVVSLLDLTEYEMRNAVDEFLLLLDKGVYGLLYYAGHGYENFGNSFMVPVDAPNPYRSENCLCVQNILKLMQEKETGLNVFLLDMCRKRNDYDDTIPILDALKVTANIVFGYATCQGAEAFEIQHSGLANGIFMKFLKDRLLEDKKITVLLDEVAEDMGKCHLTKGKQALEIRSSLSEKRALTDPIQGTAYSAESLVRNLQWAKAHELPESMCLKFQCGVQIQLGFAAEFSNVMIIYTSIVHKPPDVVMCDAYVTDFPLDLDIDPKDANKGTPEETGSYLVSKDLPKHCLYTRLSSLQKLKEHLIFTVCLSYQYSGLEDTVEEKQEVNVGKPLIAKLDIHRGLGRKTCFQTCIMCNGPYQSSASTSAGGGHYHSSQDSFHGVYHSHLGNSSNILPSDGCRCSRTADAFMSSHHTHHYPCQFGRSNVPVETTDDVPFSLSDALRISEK

For `CO[C@@H](C)c1c(NC(=O)Nc2ccnc(C(F)(F)F)c2)cnc2cc(Cl)nn12` [MLT-943], in data set [1], inhibition was half-maximal at 92 nM (IC50). In data set [2], the “histo-pathological score of hind paw: Inflammation” value stood at 0, the “histo-pathological score of hind paw: Joint damage” value came out at 0 and the “histo-pathological score of hind paw: Proteoglycan loss” value was 0. Also, in data set [2] (po), the anti-collagen antibody production entry is listed as “suppressed”, the joint histology scores entry is “normalized” and the paw swelling entry is “fully prevented”.
For `CN1CCCC(CN2c3ccccc3Sc3ccccc32)C1` (stereo not shown) [mepazine], in data set [3] (8 mg/kg BID i.p.), the concentration at 1 h worked out at 270 nM and the “[Mepazine] blood at 15h (trough)” value is recorded as “BQL”. In data set [3] (16 mg/kg QD i.p.), the concentration at 1 h was 770 nM and the “[Mepazine] blood at 15h (trough)” value is “BQL”. In data set [4], the “expression of Treg activation markers” value is “impacted neither” and the “frequency of Treg cells” value is “impacted neither”.

A word on the IC50: it is the concentration at which inhibition is half-maximal. Lower therefore signals inhibition by little substance.
